From patent publication US20200316091A1, “METHOD FOR PROVIDING CONTRACEPTION” (LABORATOIRE HRA-PHARMA, priority 2019, published 2020)

Columns and labels:
[1] = system: ovarian activity and ovulation in women; assay: Prospective, randomized, parallel-group clinical study of ovarian activity after ellaOne taken after three missed COC pills; assay type: in vivo; details: for ovulation with risk of pregnancy: Arm 1, COC resumed same day as UPA 30 mg, any time of experimental cycle, N=26
Description: To determine the effect on ovarian activity and ovulation, of waiting five days before re-starting combined oral contraception (COC), or restarting immediately, having taken ulipristal acetate (UPA) for emergency contraception (EC) after missing three COC pills.
Women were enrolled for three cycles of COC use in a 21/7 regimen. In cycle 3 all women omitted COC pills for three consecutive days (days 5, 6, 7) and on day 8 took UPA-EC (30 mg). Half the women restarted their COC pills that same day while the remainder waiting for five days before restarting. Transvaginal ultrasound (TVUS) and blood sampling for estrogen and progesterone (E and P) was undertaken in all women on days 4, 8, 11, 13, 15, 18, 22 and 26. If a follicle of >13 mm diameter was seen, TVUS and blood sampling were performed daily until a post-ovulatory follicle was seen.
Women aged 18-30, weighing ≤30 kg/m^2 participated in the study during use of three consecutive packets of COCP. Women with contraindications to the COC or with conditions associated with anovulation (e.g. polycystic ovarian syndrome), and women who were breastfeeding or using any other hormonal contraception or an intrauterine device (IUD) were excluded. Screening was undertaken during cycle 1. Throughout the study women kept a daily diary of pill intake and vaginal bleeding. All women were instructed to take their pills at the same time every evening and to follow standard rules during the first two cycles of pill use for missed pills or for vomiting after taking a pill. The duration of COC intake in cycle 1 was adjusted (to no less than 14 and no more than 21 pills) to allow the first day of cycle 2 (baseline cycle—BSL) to fall on a weekday. After a seven-day hormone free interval (HFI) all women switched to the study COC containing 30 μg ethinyl estradiol/150 μg levonorgestrel with seven placebo tablets. Cycle three (Experimental cycle—EXP), started after a seven-day HFI at the end of BSL. After transvaginal ultrasound (TVUS) on day 1 of pill intake women were randomized so that an equal number of women with ovarian follicles of diameter ≤10 mm, or >10 mm and ≤13 mm or >13 mm were allocated to one of two study arms. After 4 days of COC, all women deliberately missed their COC pill on three consecutive days (5, 6, 7) and on the morning of day 8 all took a single 30 mg tablet of ellaOne® (ulipristal acetate 30 mg). Women in arm 1 of the study (immediate re-start) resumed daily COC intake that evening (D8) while those in arm 2 waited 5 days, re-starting their OC pill on the evening of D13 (delayed re-start). Once restarted, the COCP was continued until the packet was finished. A high sensitivity urinary pregnancy test was undertaken on day 1 of BSL and EXP and at the final study visit one or two days after the HFI following the end of the pill pack. Adverse event information was collected at every visit and blood sampling for haemoglobin and liver function was performed four times during the study.
An ovarian activity score developed from the Hoogland score (Hoogland and Skouby 1993, Contraception, 1993. 47(6): p. 583-90). The ovary was considered quiescent (OSq) if estradiol concentration was ≤0.1 nmol/L and progesterone ≤5 nmol/L even if a follicle of >13 mm was present. […] Ovulation was considered at risk of pregnancy (OSp) if there was a postovulatory image on TVUS and progesterone concentrations were >30 nmol/L on one occasion or between 10-30 nmol/L on two consecutive occasions.
The proportion of women who were at risk of pregnancy (OSp) at any time during the experimental cycle, including those who ovulated within the five days following ellaOne® intake, was estimated and the exact (Clopper-Pearson) two-sided 95% confidence interval was provided for each arm. The difference between the two arms was tested through an exact without stratum adjustment due to insufficient number of women in the self-weighted strata. […]

ovulation in women = details: COC started two days after ulipristal acetate intake; cited from earlier work
[2] = Arm 1 immediate COCP re-start (D8), experimental cycle D 1
[3] = Arm 1 immediate COCP re-start (D8), experimental cycle D 4
[4] = Arm 1 immediate COCP re-start (D8), experimental cycle D 8
[5] = Arm 1 immediate COCP re-start (D8), experimental cycle D 11
[6] = Arm 1 immediate COCP re-start (D8), experimental cycle D 13
[7] = Arm 1 immediate COCP re-start (D8), experimental cycle D 15
[8] = Arm 1 immediate COCP re-start (D8), experimental cycle D 18
[9] = Arm 1 immediate COCP re-start (D8), experimental cycle D 22
[10] = Arm 1 immediate COCP re-start (D8), experimental cycle D 26
[11] = Arm 2 delayed COCP re-start (D13), experimental cycle D 1
[12] = Arm 2 delayed COCP re-start (D13), experimental cycle D 4
[13] = Arm 2 delayed COCP re-start (D13), experimental cycle D 8
[14] = Arm 2 delayed COCP re-start (D13), experimental cycle D 11
[15] = Arm 2 delayed COCP re-start (D13), experimental cycle D 13
[16] = Arm 2 delayed COCP re-start (D13), experimental cycle D 15
[17] = Arm 2 delayed COCP re-start (D13), experimental cycle D 18
[18] = Arm 2 delayed COCP re-start (D13), experimental cycle D 22
[19] = Arm 2 delayed COCP re-start (D13), experimental cycle D 26

Compound: CC(=O)O[C@]1(C(C)=O)CC[C@H]2[C@@H]3CCC4=CC(=O)CCC4=C3[C@@H](c3ccc(N(C)C)cc3)C[C@@]21C [ellaOne, 17α-acetoxy-11β-[4-N,N-dimethylamino-phenyl]-19-norpregna-4,9-diene-3,20-dione]
- ovulation with risk of pregnancy ([1]; listed as Ella): no ovulation at risk of pregnancy occurred
- ovulation with risk of pregnancy ([1]; listed as Ellaone): no woman
- number of women with ovarian activity without risk of pregnancy (OSa) ([1]; Arm 1, immediate COC re-start, experimental cycle): one
- OSa (ovarian activity not at risk of pregnancy), women with status/women monitored [1, 2]: 0/26
- OSp (ovulation at risk of pregnancy), women with status/women monitored [1, 2]: 0/26
- OSq (ovary quiescent), women with status/women monitored [1, 2]: 26/26
- OSa (ovarian activity not at risk of pregnancy), women with status/women monitored [1, 3]: 1/26
- OSp (ovulation at risk of pregnancy), women with status/women monitored [1, 3]: 0/26
- OSq (ovary quiescent), women with status/women monitored [1, 3]: 25/26
- OSa (ovarian activity not at risk of pregnancy), women with status/women monitored [1, 4]: 2/26
- OSp (ovulation at risk of pregnancy), women with status/women monitored [1, 4]: 0/26
- OSq (ovary quiescent), women with status/women monitored [1, 4]: 24/26
- OSa (ovarian activity not at risk of pregnancy), women with status/women monitored [1, 5]: 1/26
- OSp (ovulation at risk of pregnancy), women with status/women monitored [1, 5]: 0/26
- OSq (ovary quiescent), women with status/women monitored [1, 5]: 25/26
- OSa (ovarian activity not at risk of pregnancy), women with status/women monitored [1, 6]: 1/26
- OSp (ovulation at risk of pregnancy), women with status/women monitored [1, 6]: 0/26
- OSq (ovary quiescent), women with status/women monitored [1, 6]: 25/26
- OSa (ovarian activity not at risk of pregnancy), women with status/women monitored [1, 7]: 1/26
- OSp (ovulation at risk of pregnancy), women with status/women monitored [1, 7]: 0/26
- OSq (ovary quiescent), women with status/women monitored [1, 7]: 25/26
- OSa (ovarian activity not at risk of pregnancy), women with status/women monitored [1, 8]: 1/26
- OSp (ovulation at risk of pregnancy), women with status/women monitored [1, 8]: 0/26
- OSq (ovary quiescent), women with status/women monitored [1, 8]: 25/26
- OSa (ovarian activity not at risk of pregnancy), women with status/women monitored [1, 9]: 1/26
- OSp (ovulation at risk of pregnancy), women with status/women monitored [1, 9]: 0/26
- OSq (ovary quiescent), women with status/women monitored [1, 9]: 25/26
- OSa (ovarian activity not at risk of pregnancy), women with status/women monitored [1, 10]: 1/26
- OSp (ovulation at risk of pregnancy), women with status/women monitored [1, 10]: 0/26
- OSq (ovary quiescent), women with status/women monitored [1, 10]: 24/25
- proportion of women who ovulated with risk of pregnancy ([1]; Arm 2, COC re-start delayed five days after UPA 30 mg, experimental cycle, CI 5.0-38.8, p=0.042 vs Arm 1): 17.4%
- number of women who ovulated with risk of pregnancy ([1]; Arm 2, COC re-start delayed five days, more than 5 days after UPA-EC, before end of experimental cycle, N=23): Four
- number of women with resumption of follicle growth ([1]; Arm 2, delayed COC re-start, remainder of experimental cycle): Eight
- OSa (ovarian activity not at risk of pregnancy), women with status/women monitored [1, 11]: 1/23
- OSp (ovulation at risk of pregnancy), women with status/women monitored [1, 11]: 0/23
- OSq (ovary quiescent), women with status/women monitored [1, 11]: 22/23
- OSa (ovarian activity not at risk of pregnancy), women with status/women monitored [1, 12]: 3/23
- OSp (ovulation at risk of pregnancy), women with status/women monitored [1, 12]: 0/23
- OSq (ovary quiescent), women with status/women monitored [1, 12]: 20/23
- OSa (ovarian activity not at risk of pregnancy), women with status/women monitored [1, 13]: 4/23
- OSp (ovulation at risk of pregnancy), women with status/women monitored [1, 13]: 0/23
- OSq (ovary quiescent), women with status/women monitored [1, 13]: 19/23
- OSa (ovarian activity not at risk of pregnancy), women with status/women monitored [1, 14]: 6/23
- OSp (ovulation at risk of pregnancy), women with status/women monitored [1, 14]: 0/23
- OSq (ovary quiescent), women with status/women monitored [1, 14]: 17/23
- OSa (ovarian activity not at risk of pregnancy), women with status/women monitored [1, 15]: 5/22
- OSp (ovulation at risk of pregnancy), women with status/women monitored [1, 15]: 0/22
- OSq (ovary quiescent), women with status/women monitored [1, 15]: 17/22
- OSa (ovarian activity not at risk of pregnancy), women with status/women monitored [1, 16]: 7/23
- OSp (ovulation at risk of pregnancy), women with status/women monitored [1, 16]: 0/23
- OSq (ovary quiescent), women with status/women monitored [1, 16]: 16/23
- OSa (ovarian activity not at risk of pregnancy), women with status/women monitored [1, 17]: 8/23
- OSp (ovulation at risk of pregnancy), women with status/women monitored [1, 17]: 1/23
- OSq (ovary quiescent), women with status/women monitored [1, 17]: 14/23
- OSa (ovarian activity not at risk of pregnancy), women with status/women monitored [1, 18]: 2/23
- OSp (ovulation at risk of pregnancy), women with status/women monitored [1, 18]: 4/23
- OSq (ovary quiescent), women with status/women monitored [1, 18]: 17/23
- OSa (ovarian activity not at risk of pregnancy), women with status/women monitored [1, 19]: 4/23
- OSp (ovulation at risk of pregnancy), women with status/women monitored [1, 19]: 4/23
- OSq (ovary quiescent), women with status/women monitored [1, 19]: 15/23
- interference between the COC and EllaOne ([1]; COC resumed the same day as EllaOne 30 mg): no interference
- effect of starting COC on efficacy of ulipristal acetate to inhibit or delay ovulation (ovulation in women): significantly impairs efficacy
